Test results from patent publication US20220348966A1, “SYSTEM AND METHOD FOR INCREASED ALCOHOL TOLERANCE AND PRODUCTION IN YEAST” (The Trustees of Princeton University, priority 2019, published 2022).
Read-outs that look alike come from different tables or passages of the source.

What was measured:
gln3Δ strain [1] = format: cell-based, S. cerevisiae; details: for tolerance compared to wild type strain: liquid medium
Excerpt: (§1) The six hypertolerant strains were examined in liquid medium containing heavy alcohols. In this example, the liquid medium contained 1.5% or 1.6% isobutanol, or 8% ethanol.
Tolerance of the gln3Δ strain to other alcohols was explored by measuring its growth in liquid medium containing methanol, 1-propanol, 1-butanol, 2-butanol, tert-butanol, 1-pentanol, 2-methyl-1-butanol, isopentanol, or 1-hexanol.

zwf1Δ strain = format: cell-based, S. cerevisiae; details: for sensitivity / cell growth in presence of alcohol compared to wild type: FIG. 5, various alcohols
Protocol: (§2) Growth of 19 hypersensitive strains was measured in liquid SC medium containing 0.6%, 1.0%, or 1.4% isobutanol, or 8% ethanol. These growth experiments were initiated at an OD600 of 0.1, unlike in previous screens, which started with much smaller inoculums (from a 96-pin replicator).
(§3) The sensitivity of gnd1Δ and zwf1Δ strains to other alcohols including methanol, 1-propanol, 1-butanol, 2-butanol, tert-butanol, 1-pentanol, 2-methyl-1-butanol, isopentanol, and 1-hexanol was explored.

gnd1Δ strain = format: cell-based, S. cerevisiae; details: for sensitivity / cell growth in presence of alcohol compared to wild type: FIG. 5, various alcohols
Protocol: as §2, §3

yeast = details: cited from earlier work
ydr391cΔ strain = format: cell-based, S. cerevisiae; details: FIG. 6
Excerpt: as §1

gnp1Δ strain = format: cell-based, S. cerevisiae; details: FIG. 6
Excerpt: as §1

avt3Δ strain = format: cell-based, S. cerevisiae; details: FIG. 6
Excerpt: as §1

vps55Δ strain = format: cell-based, S. cerevisiae; details: FIG. 6
Excerpt: as §1

BY4741 wild type strain = details: for cell growth (OD600): 24 h
Protocol: The Tolerance Factor (TF) is defined as the ratio of the OD600 of cells grown with the heavy alcohol in the medium after 24 h, divided by the OD600 of cells grown in the absence of the heavy alcohol for the same amount of time.
A first example is for the identification of the LC50 (lethal concentration for 50% of cells) of isobutanol for the BY4741 wild type strain of S. cerevisiae, the strain from which a gene deletion library was developed (Giaever et al., 2002; Winzeler et al., 1999). […] The cell growth of BY4741 in synthetic complete (SC) liquid medium containing concentrations of isobutanol ranging from 0.0% to 1.8% (v/v) was monitored by measuring the optical density at 600 nm (OD600) after 24-h cultivation.
(§4) Utilizing the LC50 results, one can screen a gene deletion library (here, the BY4741 library [Giaever et al., 2002; Winzeler et al., 1999]) for changes in cell growth in liquid SC medium containing the heavy alcohol at an amount that is 0.1% or 0.2% (v/v) less than the LC50. Here, 1.4% (v/v) isobutanol was used. […] To quantify these phenotypes, a tolerance factor (TF) was defined as the ratio of the OD600 of cells grown with isobutanol in the medium after 24 h, divided by the OD600 of cells grown in the absence of isobutanol for the same amount of time. Thus, one can classify deletion strains as having increased sensitivity or tolerance to isobutanol based on the comparison of their TF values to that of the wild type strain in, e.g., 1.4% isobutanol measured during the screen. […] To assess the specificity of changes in tolerance to isobutanol, the growth of these selected strains in media containing ethanol can also be measured: 8% for sensitive strains or 9% for tolerant strains.
For most screens and analyses of alcohol tolerance, wild type and deletion strains can be cultured in synthetic complete (SC) medium made inhouse (see Table 1) at 30° C., and 2% glucose. Strains overexpressing PPP genes can be cultured in SC medium lacking uracil (SC-Ura) made inhouse.

gcn3Δ strain = format: cell-based, S. cerevisiae
Protocol: as §4, §1

nha1Δ strain = details: 8% ethanol
Protocol: as §2, §3

gcn4Δ strain = assay: Gene deletion library screen, tolerance factor in liquid SC medium; format: cell-based, S. cerevisiae; details: 1.4% isobutanol
Excerpt: (§5) Here, 1.4% (v/v) isobutanol was used.

gln3Δ strain [2] = assay: Growth on SC agar medium; format: cell-based, S. cerevisiae; details: 2.7% isobutanol
Excerpt: The gln3Δ strain can grow on SC agar medium containing 2.7% isobutanol.

BY4741 = assay: Serial dilutions spotted onto SC agar plates; format: cell-based, S. cerevisiae; details: SC agar containing 2.4% isobutanol
Excerpt: To evaluate isobutanol growth inhibition on solid medium, serial dilutions of BY4741 were spotted onto SC agar plates containing 0.0% to 3.0% isobutanol. […] The higher LC50 determined from agar plates may be the result of higher cell tolerance to isobutanol in solid media; however, it could also reflect the difficulty in accurately preparing solid media with specific isobutanol concentrations due to isobutanol evaporation during the pouring of hot agar.

vps34Δ strain = assay: Growth of hypersensitive strains in liquid SC medium; format: cell-based, S. cerevisiae; details: 0.6% isobutanol, initial OD600 0.1
trp3Δ strain = assay: Gene deletion library screen for isobutanol sensitivity; format: cell-based, S. cerevisiae; details: second screen, 0.6% and 1.2% isobutanol
Excerpt: as §5
(§6) Out of the 164 sensitive strains, the 46 strains that continue to display increased sensitivity to isobutanol at lower concentrations (TF <0.5 in 0.6% isobutanol or TF <0.1 in 1.2% isobutanol) can be categorized as hypersensitive. These strains are highlighted in gray in FIGS. 2A-2C. Among the 36 strains with increased tolerance, 6 continue to display increased tolerance (TF >0.4) in 1.5% isobutanol, which we categorize as hypertolerant (FIG. 3).
(§7) Next, a Gene Ontology (GO) enrichment analysis of genes deleted in the 164 most sensitive and 36 most tolerant strains can be performed. […] In fact, five strains harboring deletions in the TRP gene family, encoding enzymes in tryptophan biosynthesis, show increased isobutanol sensitivity (with trp2Δ, trp3Δ, and trp5Δ being hypersensitive strains). One can examine the increased sensitivity to isobutanol caused by TRP1 deletion because it is an auxotrophic marker in commonly used strains, such as CEN.PK- and SEY6210-derived strains. […] Furthermore, after repairing the TRP1 allele in CEN.PK2-1C and SEY6210, wild-type (BY4741) levels of isobutanol tolerance are recovered.

trp5Δ strain = assay: as above; format: cell-based, S. cerevisiae; details: second screen, 0.6% and 1.2% isobutanol
Excerpt: as §5, §6, §7

trp2Δ strain = assay: as above; format: cell-based, S. cerevisiae; details: second screen, 0.6% and 1.2% isobutanol
Excerpt: as §5, §6, §7

pep12Δ strain = assay: Growth of hypersensitive strains in liquid SC medium; format: cell-based, S. cerevisiae; details: 0.6% isobutanol, initial OD600 0.1
[3] = 0.6% isobutanol, initial OD600 0.1

## CCC(C)CO (stereo not shown) [2-methyl-1-butanol]
gln3Δ strain [1]; 0.55% 2-methyl-1-butanol, FIG. 7
  OD600 relative to wild type strain: 11.4 fold
gln3Δ strain [1]; FIG. 7
  tolerance compared to wild type strain: dramatically enhanced tolerance

## CCO [Ethanol, ethanol]
gln3Δ strain [1]; 8% ethanol, FIG. 6
  sensitivity compared to wild type strain: at least as sensitive
gln3Δ strain [1]; FIG. 7
  tolerance compared to wild type strain: does not statistically increase tolerance
zwf1Δ strain; 8% ethanol
  sensitivity compared to wild type strain: no more sensitive
zwf1Δ strain
  sensitivity / cell growth in presence of alcohol compared to wild type: neither strain demonstrates significantly increased sensitivity
gnd1Δ strain; 8% ethanol
  sensitivity compared to wild type strain: no more sensitive
gnd1Δ strain
  sensitivity / cell growth in presence of alcohol compared to wild type: neither strain demonstrates significantly increased sensitivity
yeast; S. cerevisiae
  ethanol concentration endured: ≤ 18 % (v/v)
ydr391cΔ strain; 8% ethanol
  sensitivity compared to wild type strain: at least as sensitive
gnp1Δ strain; 8% ethanol
  sensitivity compared to wild type strain: at least as sensitive
avt3Δ strain; 8% ethanol
  sensitivity compared to wild type strain: at least as sensitive
vps55Δ strain; 8% ethanol
  sensitivity compared to wild type strain: at least as sensitive
BY4741 wild type strain; 8.0% ethanol
  Tolerance Factor: 0.31
gcn3Δ strain; 8% ethanol, FIG. 6
  sensitivity compared to wild type strain: at least as sensitive
nha1Δ strain
  sensitivity compared to wild type strain: no more sensitive

## CCCCO [Example 1-butanol, 1-butanol]
gln3Δ strain [1]; FIG. 7
  tolerance compared to wild type strain: does not statistically increase tolerance

## CCCCCCO [Example 1-hexanol, 1-hexanol]
gln3Δ strain [1]; FIG. 7
  tolerance compared to wild type strain: does not statistically increase tolerance

## CCCCCO [Example 1-pentanol, 1-pentanol]
gln3Δ strain [1]; FIG. 7
  tolerance compared to wild type strain: does not statistically increase tolerance

## CCCO [Example 1-propanol, 1-propanol]
gln3Δ strain [1]; FIG. 7
  tolerance compared to wild type strain: does not statistically increase tolerance
zwf1Δ strain
  sensitivity / cell growth in presence of alcohol compared to wild type: neither strain demonstrates significantly increased sensitivity
gnd1Δ strain
  sensitivity / cell growth in presence of alcohol compared to wild type: neither strain demonstrates significantly increased sensitivity

## CCC(C)O (stereo not shown) [Example 2-butanol, 2-butanol]
gln3Δ strain [1]; FIG. 7
  tolerance compared to wild type strain: smaller, but statistically significant, increase in tolerance

## CC(C)CO [Isobutanol, 2-methyl-1-propanol]
gln3Δ strain [1]; 1.5% isobutanol, FIG. 6
  growth compared to wild type: grow better than the wild type
gln3Δ strain [1]; 1.6% isobutanol, FIG. 6
  tolerance compared to wild type: enhanced tolerance
gln3Δ strain [1]; FIG. 7
  increase in isobutanol tolerance compared to wild type: 4.04 fold
  tolerance compared to wild type strain: dramatically enhanced tolerance
gcn4Δ strain
  Tolerance Factor: 0.86
zwf1Δ strain; [3]
  Tolerance Factor: less than 0.3
gnd1Δ strain; [3]
  Tolerance Factor: less than 0.3
yeast
  toxicity for yeast relative to ethanol: 10 times
gln3Δ strain [2]
  growth on SC agar medium: can grow
ydr391cΔ strain; 1.5% isobutanol
  growth compared to wild type: grow better than the wild type
gnp1Δ strain; 1.5% isobutanol
  growth compared to wild type: grow better than the wild type
gnp1Δ strain; 1.6% isobutanol
  tolerance compared to wild type: enhanced tolerance
avt3Δ strain; 1.5% isobutanol
  growth compared to wild type: grow better than the wild type
vps55Δ strain; 1.5% isobutanol
  growth compared to wild type: grow better than the wild type
vps55Δ strain; 1.6% isobutanol
  tolerance compared to wild type: enhanced tolerance
BY4741 wild type strain; 0.6% isobutanol
  Tolerance Factor: 0.92
BY4741 wild type strain; 1.2% isobutanol
  Tolerance Factor: 0.72
BY4741 wild type strain; 1.4% isobutanol
  Tolerance Factor: 0.38
BY4741 wild type strain; 1.5% isobutanol
  Tolerance Factor: 0.19
BY4741 wild type strain; 1.6% isobutanol
  Tolerance Factor: 0.11
BY4741 wild type strain; SC liquid medium, OD600 after 24-h cultivation
  LC50 (lethal concentration for 50% of cells): ~1.5 % (v/v)
BY4741 wild type strain; isobutanol 1.4% and 1.5%
  cell growth (OD600): moderate inhibition
BY4741 wild type strain; isobutanol concentrations above 1.6%
  cell growth (OD600): significantly inhibited
BY4741 wild type strain; isobutanol concentrations below 1.3%
  cell growth (OD600): marginally affected
BY4741
  cell growth on agar plates: still observable but noticeably inhibited
gcn3Δ strain; 1.4% isobutanol
  Tolerance Factor: 0.98
gcn3Δ strain; 1.5% isobutanol, FIG. 6
  growth compared to wild type: grow better than the wild type
gcn3Δ strain; 1.6% isobutanol, FIG. 6
  tolerance compared to wild type: enhanced tolerance
vps34Δ strain
  Tolerance Factor: less than 0.3
trp3Δ strain
  isobutanol sensitivity class: hypersensitive (TF <0.5 in 0.6% isobutanol or TF <0.1 in 1.2% isobutanol)
trp5Δ strain
  isobutanol sensitivity class: hypersensitive (TF <0.5 in 0.6% isobutanol or TF <0.1 in 1.2% isobutanol)
trp2Δ strain
  isobutanol sensitivity class: hypersensitive (TF <0.5 in 0.6% isobutanol or TF <0.1 in 1.2% isobutanol)
pep12Δ strain
  Tolerance Factor: less than 0.3

## CC(C)CCO [isopentanol, 3-methyl-1-butanol]
gln3Δ strain [1]; FIG. 7
  tolerance compared to wild type strain: dramatically enhanced tolerance

## CO [methanol]
gln3Δ strain [1]; FIG. 7
  tolerance compared to wild type strain: does not statistically increase tolerance
zwf1Δ strain
  sensitivity / cell growth in presence of alcohol compared to wild type: neither strain demonstrates significantly increased sensitivity
gnd1Δ strain
  sensitivity / cell growth in presence of alcohol compared to wild type: neither strain demonstrates significantly increased sensitivity

## CC(C)(C)O [tert-butanol]
gln3Δ strain [1]; FIG. 7
  tolerance compared to wild type strain: dramatically enhanced tolerance
